Inconclusive results and toxic doses are left out.
Tested on: BDF1 mice, P388 leukemia ip, median survival T/C
Test: NCI In Vivo Anticancer Drug Screen. Data for tumor model P388 Leukemia (intraperitoneal) in B6D2F1 (BDF1) mice
Conditions: endpoint: median survival time, higher = longer survival
Outline: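 Survival ratio, drug arm over vehicle arm, in mice with a transplanted tumour.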

[1] = dose: 50.0 mg/kg/injection, schedule: Q01DX009 (ip), vehicle: saline with Tween-80
[2] = dose: 100.0 mg/kg/injection, schedule: Q01DX009 (ip), vehicle: saline with Tween-80
[3] = dose: 50.0 mg/kg/injection, schedule: Q01DX009 (ip), vehicle: Klucel (hydroxypropylcellulose) (HPC)
[4] = dose: 100.0 mg/kg/injection, schedule: Q01DX009 (ip), vehicle: Klucel (hydroxypropylcellulose) (HPC)
[5] = dose: 100.0 mg/kg/injection, schedule: Q04DX003 (ip), vehicle: Klucel (hydroxypropylcellulose) (HPC)
[6] = dose: 200.0 mg/kg/injection, schedule: Q04DX003 (ip), vehicle: Klucel (hydroxypropylcellulose) (HPC)
[7] = dose: 400.0 mg/kg/injection, schedule: Q04DX003 (ip), vehicle: Klucel (hydroxypropylcellulose) (HPC)
[8] = dose: 200.0 mg/kg/injection, schedule: Q01DX009 (ip), vehicle: saline with Tween-80
[9] = dose: 400.0 mg/kg/injection, schedule: Q01DX009 (ip), vehicle: saline with Tween-80

CCOC(=O)Oc1ccc(/C=N/NC(N)=S)nc1
T/C [1]: 169 % of control | T/C [2]: 178 % of control

C=C(C)COP(=O)(OCC(=C)C)OCC(=C)C
T/C [3]: 104 % of control | T/C [4]: 100 % of control | T/C [5]: 104 % of control | T/C (dose: 200.0 mg/kg/injection, schedule: Q01DX009 (ip), vehicle: Klucel (hydroxypropylcellulose) (HPC)): 109 % of control | T/C [6]: 95 % of control | T/C [7]: 95 % of control

CCC(C#N)(c1ccccc1)c1ccccc1
T/C [4]: 90 % of control | T/C [5]: 95 % of control | T/C [6]: 95 % of control | T/C (dose: 400.0 mg/kg/injection, schedule: Q01DX009 (ip), vehicle: Klucel (hydroxypropylcellulose) (HPC)): 100 % of control | T/C [7]: 100 % of control

O=C(O)C1CCC2CCCCC2[N-]1.O=C(O)C1CCC2CCCCC2[N-]1.[Cu+2] (stereo not given)
T/C (dose: 6.25 mg/kg/injection, schedule: Q04DX003 (ip), vehicle: saline): 100 % of control | T/C (dose: 12.5 mg/kg/injection, schedule: Q04DX003 (ip), vehicle: saline): 90 % of control | T/C (dose: 25.0 mg/kg/injection, schedule: Q04DX003 (ip), vehicle: saline): 100 % of control

O=S1(=O)CCN(C2CC2)CC1
T/C [3]: 104 % of control

COC(=O)c1cc(Cl)nc2nc(Cl)nc(Cl)c12
T/C (dose: 50.0 mg/kg/injection, schedule: Q01DX009 (ip), vehicle: DMSO): 114 % of control | T/C (dose: 100.0 mg/kg/injection, schedule: Q01DX009 (ip), vehicle: DMSO): 112 % of control | T/C (dose: 200.0 mg/kg/injection, schedule: Q01DX009 (ip), vehicle: DMSO): 102 % of control

O=C(Nc1ccccc1)N(C(=O)C(F)(F)F)c1ccccc1
T/C [1]: 95 % of control | T/C [2]: 92 % of control | T/C [8]: 90 % of control

CCCCCCCCC1SC1CCCCCCCC(=O)OCCOCCOCC (stereo not given)
T/C (dose: 100.0 mg/kg/injection, schedule: Q04DX003 (ip), vehicle: saline): 88 % of control | T/C (dose: 200.0 mg/kg/injection, schedule: Q04DX003 (ip), vehicle: saline): 88 % of control | T/C (dose: 400.0 mg/kg/injection, schedule: Q04DX003 (ip), vehicle: saline): 92 % of control

Cc1cc(=O)cc(C)n1C
T/C [2]: 104 % of control | T/C [8]: 100 % of control | T/C [9]: 100 % of control

CC(C)CCCC(C)CCO (stereo not given)
T/C (dose: 50.0 mg/kg/injection, schedule: Q01DX009 (ip), vehicle: saline): 100 % of control | T/C (dose: 100.0 mg/kg/injection, schedule: Q01DX009 (ip), vehicle: saline): 100 % of control | T/C (dose: 200.0 mg/kg/injection, schedule: Q01DX009 (ip), vehicle: saline): 101 % of control

CCCCCCCCCCCCCCCc1ccc(C(=O)C[n+]2ccccc2)cc1
T/C (dose: 3.13 mg/kg/injection, schedule: Q01DX009 (ip), vehicle: saline with Tween-80): 100 % of control | T/C (dose: 6.25 mg/kg/injection, schedule: Q01DX009 (ip), vehicle: saline with Tween-80): 104 % of control | T/C (dose: 12.5 mg/kg/injection, schedule: Q01DX009 (ip), vehicle: saline with Tween-80): 118 % of control | T/C (dose: 16.5 mg/kg/injection, schedule: Q04DX003 (ip), vehicle: saline with Tween-80): 122 % of control

O=C(O)C1CSC(c2ccccc2)N1 (stereo not given)
T/C (dose: 25.0 mg/kg/injection, schedule: Q01DX009 (ip), vehicle: saline with Tween-80): 111 % of control | T/C [2]: 109 % of control | T/C [8]: 100 % of control

COc1cc(NCCCC(C)N)c2ncccc2c1OC (stereo not given)
T/C (dose: 6.25 mg/kg/injection, schedule: Q01DX009 (ip), vehicle: saline): 101 % of control | T/C (dose: 12.5 mg/kg/injection, schedule: Q01DX009 (ip), vehicle: saline): 109 % of control | T/C (dose: 25.0 mg/kg/injection, schedule: Q01DX009 (ip), vehicle: saline): 116 % of control

CO/C=C1\Cc2cc(OC)c(OC)cc2C1=O
T/C [2]: 90 % of control | T/C [8]: 100 % of control | T/C [9]: 109 % of control

CCCC[P+](c1ccccc1)(c1ccccc1)c1ccccc1
T/C (dose: 0.6 mg/kg/injection, schedule: Q01DX009 (ip), vehicle: saline): 122 % of control | T/C (dose: 1.2 mg/kg/injection, schedule: Q01DX009 (ip), vehicle: saline): 105 % of control | T/C (dose: 2.5 mg/kg/injection, schedule: Q01DX009 (ip), vehicle: saline): 150 % of control | T/C (dose: 5.0 mg/kg/injection, schedule: Q01DX009 (ip), vehicle: saline): 115 % of control | T/C (dose: 40.0 mg/kg/injection, schedule: Q01DX009 (ip), vehicle: saline): 95 % of control
